Calls of active or inactive are those of the source.
Experiments:
INS1 = test: INS-1E survival protection against cytokine death – cell-based, luminescence, retest, dose response (AID 449756); format: functional; conditions: Rattus norvegicus;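 further: cell death triggered by IL-1 beta plus TNF-alpha plus IFN-gamma mixture; protective hits raise ATP signal compared with cytokine alone wells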
Nonstructural protein 1 = Nonstructural protein 1 (Influenza A virus, UniProt Q194T2); format: functional, Influenza A virus (A/California/07/2009(H1N1))
Estrogen receptor = molecular target: T1, Estrogen receptor (Homo sapiens, UniProt P03372);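 further: potency for inhibiting coactivator peptide recruitment to the receptor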
T1 sequence (P03372 whole entry): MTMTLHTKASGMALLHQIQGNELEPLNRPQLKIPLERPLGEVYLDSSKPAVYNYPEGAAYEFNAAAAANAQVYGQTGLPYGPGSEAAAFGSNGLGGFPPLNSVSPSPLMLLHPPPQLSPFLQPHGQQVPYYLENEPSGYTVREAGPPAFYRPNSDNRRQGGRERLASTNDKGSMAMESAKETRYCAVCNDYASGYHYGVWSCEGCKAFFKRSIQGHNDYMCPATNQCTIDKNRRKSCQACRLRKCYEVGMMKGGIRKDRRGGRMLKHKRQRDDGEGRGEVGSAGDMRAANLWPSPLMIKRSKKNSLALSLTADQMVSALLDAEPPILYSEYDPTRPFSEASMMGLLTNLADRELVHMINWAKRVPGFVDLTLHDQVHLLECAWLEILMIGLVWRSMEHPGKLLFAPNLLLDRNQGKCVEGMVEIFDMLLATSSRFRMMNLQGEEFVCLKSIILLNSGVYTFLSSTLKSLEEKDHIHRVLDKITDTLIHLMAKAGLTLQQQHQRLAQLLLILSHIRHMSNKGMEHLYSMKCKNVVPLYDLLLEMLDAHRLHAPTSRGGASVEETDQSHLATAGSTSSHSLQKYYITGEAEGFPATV

[1] = fluconazole-exposed Candida albicans growth modulators – fluorescence, retest, confirmation (AID 2467); format: functional, cell-based
[2] = viability loss in THP-1 monocytes – THP-1 cells, cytotoxicity control for Vif-APOBEC3G degradation inhibitor project, dose response (AID 1117359); format: functional; conditions: THP-1
Bcl-2-like protein 10 = molecular target: T2, Bcl-2-like protein 10 (Homo sapiens, UniProt Q9HD36); test: Bcl-B/TR3 peptide binding disruption – biochemical, fluorescence polarization, FITC-TR3 peptide, selectivity assay for Bfl-1 inhibitor project, primary screen (AID 748);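 further: fluorescence polarization from a fluorescein-labelled TR3 peptide binding purified Bcl-B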
T2 sequence (Q9HD36 whole entry): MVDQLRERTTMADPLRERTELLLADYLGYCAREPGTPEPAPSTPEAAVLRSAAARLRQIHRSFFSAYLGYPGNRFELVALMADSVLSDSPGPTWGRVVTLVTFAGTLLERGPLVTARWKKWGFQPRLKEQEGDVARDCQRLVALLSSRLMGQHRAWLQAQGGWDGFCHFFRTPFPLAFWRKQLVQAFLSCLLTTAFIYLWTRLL

[3] = NIH-3T3 fibroblast cytotoxicity, dose response, cytotoxicity control, cell-based, fluorescence, Alamar Blue, secondary assay (AID 2327); format: functional;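 further: NIH-3T3 mouse fibroblasts cultured with fluconazole at 8 µg/mL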
Cytochrome P450 2C9 = Cytochrome P450 2C9 (Homo sapiens, UniProt P11712); conditions: Potency
[4] = IC50 of Artemis nuclease activity blockers – biochemical, fluorescence intensity, dose response (AID 720701); format: functional;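 further: Artemis endonuclease enzyme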
[5] = viability of HCT116 lacking mutant beta-catenin – cell-based, human colon tumor, dose response (AID 1045); format: functional;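 further: HCT116 colon tumor cells with beta catenin knocked out; cells exposed to compound for 60 hours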
[6] = viability of PTEN-deleted HCT116 cells – cell-based, HCT116 PTEN knockout, dose response (AID 1047); format: functional;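 further: HCT116 colon tumor cells with PTEN knocked out; cells exposed to compound for 60 hours before readout; potency for loss of cell viability measured by luminescence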
[7] = Luminescence Cell-Based Dose Response HTS to Identify Activators of Luciferase Translation or Activity in H4 […] Cells. [Related pubchem assays: 1829 (Project Summary), 1814 (Primary HTS)]; format: functional
[8] = molecular target: DNA damage-inducible transcript 3 protein (Mus musculus, UniProt P35639); format: functional, Cricetulus griseus
[9] = Luminescence Cell-Based Dose Confirmation HTS to Identify Activators of 5'UTR Stem-Loop Driven Alpha-Synuclein mRNA Translation in H4 Neuroglioblastoma Cells. [Related pubchem assays: 1829 (Project Summary), 1814 (Primary HTS)]; format: functional
H4 = test: Luminescence Cell-Based Dose Response HTS to Identify Activators of 5'UTR Stem-Loop Driven Prion Protein mRNA Translation in H4 Neuroglioblastoma Cells. [Related pubchem assays: 1829 (Project Summary), 1814 (Primary HTS)]; format: functional; conditions: Homo sapiens
[10] = Luminescence Cell-Based Dose Retest to Confirm Inhibitors of Cancer Stem Cells. [Related pubchem assays (depositor defined):AID2717, AID2721]; format: functional; conditions: Homo sapiens
[11] = molecular target: T3, Corticotropin-releasing factor receptor 2/Corticotropin-releasing factor-binding protein (Homo sapiens, UniProt P24387+Q13324); test: activators of CRF receptor 2 with binding protein – uHTS hits, confirmation (AID 602473); format: functional; conditions: read-out: EC50_Mean
T3 sequence (Q13324 whole entry): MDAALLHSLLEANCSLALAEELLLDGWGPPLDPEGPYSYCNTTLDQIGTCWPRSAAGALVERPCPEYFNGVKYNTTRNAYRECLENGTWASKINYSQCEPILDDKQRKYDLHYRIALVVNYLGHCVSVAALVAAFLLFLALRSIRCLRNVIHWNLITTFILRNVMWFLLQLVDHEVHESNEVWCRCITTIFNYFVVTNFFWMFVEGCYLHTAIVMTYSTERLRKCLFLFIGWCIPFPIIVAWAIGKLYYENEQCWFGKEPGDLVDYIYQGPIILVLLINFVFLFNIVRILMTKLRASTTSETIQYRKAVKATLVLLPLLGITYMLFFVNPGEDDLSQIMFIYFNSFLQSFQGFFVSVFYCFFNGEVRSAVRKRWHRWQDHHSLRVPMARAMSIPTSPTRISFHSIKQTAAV
T3 sequence (P24387 whole entry): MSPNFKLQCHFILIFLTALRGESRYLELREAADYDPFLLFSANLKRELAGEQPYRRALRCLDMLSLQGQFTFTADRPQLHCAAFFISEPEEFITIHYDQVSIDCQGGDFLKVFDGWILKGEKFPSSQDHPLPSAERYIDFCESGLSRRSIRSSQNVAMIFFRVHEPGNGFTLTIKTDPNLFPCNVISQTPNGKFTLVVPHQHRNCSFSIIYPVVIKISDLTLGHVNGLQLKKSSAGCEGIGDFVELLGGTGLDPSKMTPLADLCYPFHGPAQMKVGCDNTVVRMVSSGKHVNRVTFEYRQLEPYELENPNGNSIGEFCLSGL

[12] = blockers of CRF-binding protein–CRF-R2 complex – cell-based, uHTS hits, 384-well, dose response (AID 651639); format: functional, Homo sapiens; conditions: read-out: IC50_Mean
Aminopeptidase N = Aminopeptidase N (Plasmodium falciparum FcB1/Columbia, UniProt O96935); test: malaria alanyl aminopeptidase activity blockers – biochemical, fluorogenic H-Leu-NHMec substrate, 1536-well (AID 1445); design: species or system Plasmodium falciparum 3D7, 3D7
[13] = molecular target: T3, Corticotropin-releasing factor receptor 2/Corticotropin-releasing factor-binding protein; test: Dose Response confirmation of uHTS hits for small molecule antagonists of the CRF-binding protein and CRF-R2 receptor complex.; format: functional; conditions: read-out: IC50_Mean
[14] = molecular target: G-protein coupled receptor 35 (Homo sapiens, UniProt Q9HC97); test: inhibition of zaprinast-stimulated GPR35 beta-arrestin translocation – imaging, U2OS, beta-arrestin-GFP, zaprinast agonist, primary screen (AID 2058); format: functional;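 further: antagonist potency meaning inhibition of agonist-induced arrestin redistribution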
[15] = molecular target: Scavenger receptor class B member 1 (Mus musculus, UniProt Q61009); test: mouse SR-BI DiI-HDL uptake blockers – ldlA[mSR-BI] cells, fluorescence, cherry pick, dose response (AID 493194); format: functional, cell-based;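 further: cellular uptake of fluorescent DiI-labeled HDL measured as cell fluorescence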
[16] = molecular target: G-protein coupled receptor 55 (Homo sapiens, UniProt Q9Y2T6); test: selective activators of receptor GPR55 – imaging, U2OS cells, beta-arrestin-GFP redistribution, primary screen (AID 1961); format: functional
[17] = molecular target: T4, Heat shock factor protein 1 (Mus musculus, UniProt P38532); test: decrease of HSF1-responsive luciferase luminescence – cell-based, NIH3T3, dose retest, confirmation (AID 2382); format: functional;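 further: NIH3T3 fibroblasts with HSF1-driven luciferase reporter stressed by proteasome inhibitor MG132; luminescence from HSF1-driven luciferase expression after 8 hours of MG132 stress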
T4 sequence (P38532 whole entry): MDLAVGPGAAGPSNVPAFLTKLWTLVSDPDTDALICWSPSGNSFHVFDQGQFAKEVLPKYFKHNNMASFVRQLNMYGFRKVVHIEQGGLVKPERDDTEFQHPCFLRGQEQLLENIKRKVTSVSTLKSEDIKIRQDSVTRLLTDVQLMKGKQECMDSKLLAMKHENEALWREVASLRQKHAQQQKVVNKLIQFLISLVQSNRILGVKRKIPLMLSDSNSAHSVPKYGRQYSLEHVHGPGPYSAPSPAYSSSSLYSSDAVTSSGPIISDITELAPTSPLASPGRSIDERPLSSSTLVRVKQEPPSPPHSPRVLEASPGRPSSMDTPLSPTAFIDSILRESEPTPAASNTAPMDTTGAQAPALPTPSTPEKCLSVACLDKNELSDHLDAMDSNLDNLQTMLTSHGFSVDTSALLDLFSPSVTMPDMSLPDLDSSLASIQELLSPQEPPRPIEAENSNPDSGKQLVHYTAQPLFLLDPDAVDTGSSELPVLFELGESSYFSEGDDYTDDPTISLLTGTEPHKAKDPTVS

[18] = MIN6 cell viability loss – mouse insulinoma, cytotoxicity control, dose response (AID 2122); format: functional;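 further: confirmatory high-throughput counterscreen run to flag cytotoxic compounds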
[19] = decrease of insulin promoter-GFP reporter – imaging, high-content screening, mouse beta cells (AID 1628); format: functional; conditions: MIN6
[20] = reduction of Shn3 3'UTR-driven luciferase in osteoblasts – cell-based, Clone20 osteoblasts, firefly luciferase, cherry-picked, dose response (AID 624132); format: functional;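 further: firefly luciferase luminescence from reporter carrying the Shn3 3'UTR in osteoblasts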
Paired box protein Pax-8 = Paired box protein Pax-8 (Homo sapiens, UniProt Q06710); test: PAX8 transcriptional activity inhibition in RMG-I – RMG-I cells, luciferase, cherry-pick, dose response (AID 687027); format: functional, cell-based;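 further: luciferase reporter driven by Pax8 target thyroperoxidase promoter measured by SteadyGlo luminescence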
[21] = loss of viability in HepG2 cells – cell-based, CellTiter-Glo, cherry-picked, cytotoxicity control for Shn3 inhibitor project, dose response (AID 624134); format: functional
Hexokinase = Hexokinase (Trypanosoma brucei, UniProt Q38C41); test: Confirmation assay for inhibitors of Trypanosoma brucei hexokinase 1-Analogue-first series. [Related pubchem assays (depositor defined):AID1430, AID1632, AID2516, AID2560, AID2579, AID2600, AID449725, AID492951]; format: functional
[22] = molecular target: C-C chemokine receptor type 6 (Homo sapiens, UniProt P51684); test: antagonism of CCR6 beta-arrestin recruitment – cell-based, luminescent beta-arrestin readout, dose response (AID 504728); format: functional
Beta-galactosidase = Beta-galactosidase (Escherichia coli, UniProt Q8VNN2); test: detection-enzyme interference by beta-gal modulators – biochemical, E. coli enzyme, set 3, artefact control for CCR6 antagonist project, dose response (AID 504712); format: functional
Cytochrome P450 2D6 = Cytochrome P450 2D6 (Homo sapiens, UniProt P10635); test: qHTS Assay for Inhibitors and Substrates of Cytochrome P450 2D6. [Related pubchem assays: 410 ]; format: ADME; conditions: read-out: Potency
Sequence of Cytochrome P450 2D6 (P10635 whole entry): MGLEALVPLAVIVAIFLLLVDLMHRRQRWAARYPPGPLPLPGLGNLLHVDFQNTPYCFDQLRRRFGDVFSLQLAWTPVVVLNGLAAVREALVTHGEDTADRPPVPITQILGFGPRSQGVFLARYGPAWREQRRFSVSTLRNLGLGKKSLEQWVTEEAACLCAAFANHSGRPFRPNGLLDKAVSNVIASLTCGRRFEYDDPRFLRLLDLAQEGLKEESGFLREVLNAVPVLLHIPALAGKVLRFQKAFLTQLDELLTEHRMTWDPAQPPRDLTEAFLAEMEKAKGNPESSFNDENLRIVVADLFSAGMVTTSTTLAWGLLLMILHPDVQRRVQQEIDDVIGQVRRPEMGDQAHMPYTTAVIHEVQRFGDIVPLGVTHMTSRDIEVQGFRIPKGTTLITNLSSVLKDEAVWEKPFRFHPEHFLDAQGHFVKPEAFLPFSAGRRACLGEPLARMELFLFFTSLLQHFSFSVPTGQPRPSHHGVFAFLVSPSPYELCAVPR

Sequence of Scavenger receptor class B member 1 (Q61009 whole entry): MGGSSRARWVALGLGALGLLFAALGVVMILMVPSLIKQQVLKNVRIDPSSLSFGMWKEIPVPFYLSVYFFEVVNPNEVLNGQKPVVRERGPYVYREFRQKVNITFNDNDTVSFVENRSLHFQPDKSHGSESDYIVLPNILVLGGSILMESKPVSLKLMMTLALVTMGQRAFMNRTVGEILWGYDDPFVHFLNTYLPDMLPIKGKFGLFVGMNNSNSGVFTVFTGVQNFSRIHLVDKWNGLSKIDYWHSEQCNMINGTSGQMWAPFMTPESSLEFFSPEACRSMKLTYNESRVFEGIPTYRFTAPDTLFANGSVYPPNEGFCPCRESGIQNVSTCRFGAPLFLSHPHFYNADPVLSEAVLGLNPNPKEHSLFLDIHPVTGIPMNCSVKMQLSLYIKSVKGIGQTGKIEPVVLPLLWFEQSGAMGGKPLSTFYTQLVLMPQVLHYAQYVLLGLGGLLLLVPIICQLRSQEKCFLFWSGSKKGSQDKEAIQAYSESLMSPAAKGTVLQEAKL
Sequence of Cytochrome P450 2C9 (P11712 whole entry): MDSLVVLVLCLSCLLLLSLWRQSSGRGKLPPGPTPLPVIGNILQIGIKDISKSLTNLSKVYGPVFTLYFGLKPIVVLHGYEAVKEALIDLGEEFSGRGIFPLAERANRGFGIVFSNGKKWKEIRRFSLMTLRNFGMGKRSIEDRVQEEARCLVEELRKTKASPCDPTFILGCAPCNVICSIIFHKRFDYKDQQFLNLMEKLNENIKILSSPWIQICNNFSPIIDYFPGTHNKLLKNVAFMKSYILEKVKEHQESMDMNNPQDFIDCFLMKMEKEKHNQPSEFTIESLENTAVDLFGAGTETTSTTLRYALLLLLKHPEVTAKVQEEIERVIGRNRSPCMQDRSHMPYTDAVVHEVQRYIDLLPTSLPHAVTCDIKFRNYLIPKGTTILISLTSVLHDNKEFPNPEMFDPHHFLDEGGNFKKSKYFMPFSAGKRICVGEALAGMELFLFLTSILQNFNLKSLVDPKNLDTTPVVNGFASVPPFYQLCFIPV
Sequence of C-C chemokine receptor type 6 (P51684 whole entry): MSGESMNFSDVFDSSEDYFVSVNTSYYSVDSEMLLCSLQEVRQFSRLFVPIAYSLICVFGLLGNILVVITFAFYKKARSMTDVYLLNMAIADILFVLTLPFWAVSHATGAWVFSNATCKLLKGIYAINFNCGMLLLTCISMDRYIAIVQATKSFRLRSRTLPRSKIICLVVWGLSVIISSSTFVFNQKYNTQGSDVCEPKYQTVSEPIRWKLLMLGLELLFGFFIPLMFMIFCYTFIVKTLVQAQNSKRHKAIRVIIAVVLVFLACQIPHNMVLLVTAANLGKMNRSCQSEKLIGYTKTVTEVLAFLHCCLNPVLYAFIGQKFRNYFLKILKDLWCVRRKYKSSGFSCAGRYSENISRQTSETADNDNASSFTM
Sequence of DNA damage-inducible transcript 3 protein (P35639 whole entry): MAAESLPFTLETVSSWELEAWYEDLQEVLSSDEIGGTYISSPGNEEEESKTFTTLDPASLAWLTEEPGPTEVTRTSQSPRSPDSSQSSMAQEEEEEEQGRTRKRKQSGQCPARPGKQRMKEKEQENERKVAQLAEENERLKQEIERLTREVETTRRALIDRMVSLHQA
Sequence of Paired box protein Pax-8 (Q06710 whole entry): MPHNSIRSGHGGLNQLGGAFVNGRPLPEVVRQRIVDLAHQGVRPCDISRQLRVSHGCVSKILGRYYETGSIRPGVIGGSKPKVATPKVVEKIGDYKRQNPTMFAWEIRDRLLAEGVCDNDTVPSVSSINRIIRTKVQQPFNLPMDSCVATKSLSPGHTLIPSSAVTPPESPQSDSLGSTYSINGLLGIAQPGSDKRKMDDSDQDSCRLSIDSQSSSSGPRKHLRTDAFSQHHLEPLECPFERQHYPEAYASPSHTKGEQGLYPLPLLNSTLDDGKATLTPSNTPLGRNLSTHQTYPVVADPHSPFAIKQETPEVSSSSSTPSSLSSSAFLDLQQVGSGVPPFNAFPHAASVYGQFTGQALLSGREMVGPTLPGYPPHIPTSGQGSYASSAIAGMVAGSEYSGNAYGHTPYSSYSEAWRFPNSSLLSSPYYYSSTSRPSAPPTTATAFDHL
Sequence of Hexokinase (Q38C41 whole entry): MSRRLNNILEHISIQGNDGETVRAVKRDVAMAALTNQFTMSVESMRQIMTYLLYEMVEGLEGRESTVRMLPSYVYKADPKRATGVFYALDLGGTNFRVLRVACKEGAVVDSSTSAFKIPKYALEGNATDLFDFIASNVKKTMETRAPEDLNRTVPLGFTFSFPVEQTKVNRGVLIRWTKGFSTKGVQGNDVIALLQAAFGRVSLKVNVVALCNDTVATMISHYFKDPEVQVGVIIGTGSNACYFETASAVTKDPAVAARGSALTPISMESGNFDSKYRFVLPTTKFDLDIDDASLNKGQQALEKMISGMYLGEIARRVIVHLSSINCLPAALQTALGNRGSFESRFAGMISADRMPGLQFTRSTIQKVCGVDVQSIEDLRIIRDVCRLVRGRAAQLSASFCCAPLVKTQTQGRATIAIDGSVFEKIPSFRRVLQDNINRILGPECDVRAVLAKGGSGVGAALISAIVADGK
Sequence of Nonstructural protein 1 (Q194T2 whole entry): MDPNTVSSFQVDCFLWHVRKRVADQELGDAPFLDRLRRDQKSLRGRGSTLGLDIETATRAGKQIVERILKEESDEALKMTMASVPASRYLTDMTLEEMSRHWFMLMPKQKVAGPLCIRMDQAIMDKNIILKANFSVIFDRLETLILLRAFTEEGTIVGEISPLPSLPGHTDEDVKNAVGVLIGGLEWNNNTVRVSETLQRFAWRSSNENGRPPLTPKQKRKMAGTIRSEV
Sequence of G-protein coupled receptor 35 (Q9HC97 whole entry): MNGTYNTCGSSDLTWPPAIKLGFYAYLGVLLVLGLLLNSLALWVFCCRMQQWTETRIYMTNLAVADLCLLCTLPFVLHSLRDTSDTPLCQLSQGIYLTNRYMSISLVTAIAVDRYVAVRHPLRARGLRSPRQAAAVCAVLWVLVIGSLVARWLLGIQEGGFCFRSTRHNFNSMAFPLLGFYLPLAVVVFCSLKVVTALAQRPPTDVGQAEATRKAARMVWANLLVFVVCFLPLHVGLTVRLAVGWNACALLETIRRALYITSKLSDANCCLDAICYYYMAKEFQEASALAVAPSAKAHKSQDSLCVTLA
Sequence of G-protein coupled receptor 55 (Q9Y2T6 whole entry): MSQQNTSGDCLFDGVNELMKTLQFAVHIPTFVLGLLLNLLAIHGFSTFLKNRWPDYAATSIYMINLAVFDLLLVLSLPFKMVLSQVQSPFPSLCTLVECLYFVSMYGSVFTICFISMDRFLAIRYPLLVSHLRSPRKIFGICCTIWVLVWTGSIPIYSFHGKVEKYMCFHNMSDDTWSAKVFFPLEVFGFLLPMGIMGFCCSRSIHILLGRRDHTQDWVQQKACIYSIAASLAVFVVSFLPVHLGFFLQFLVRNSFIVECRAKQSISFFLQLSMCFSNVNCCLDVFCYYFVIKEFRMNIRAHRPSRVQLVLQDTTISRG
Sequence of Beta-galactosidase (Q8VNN2 whole entry): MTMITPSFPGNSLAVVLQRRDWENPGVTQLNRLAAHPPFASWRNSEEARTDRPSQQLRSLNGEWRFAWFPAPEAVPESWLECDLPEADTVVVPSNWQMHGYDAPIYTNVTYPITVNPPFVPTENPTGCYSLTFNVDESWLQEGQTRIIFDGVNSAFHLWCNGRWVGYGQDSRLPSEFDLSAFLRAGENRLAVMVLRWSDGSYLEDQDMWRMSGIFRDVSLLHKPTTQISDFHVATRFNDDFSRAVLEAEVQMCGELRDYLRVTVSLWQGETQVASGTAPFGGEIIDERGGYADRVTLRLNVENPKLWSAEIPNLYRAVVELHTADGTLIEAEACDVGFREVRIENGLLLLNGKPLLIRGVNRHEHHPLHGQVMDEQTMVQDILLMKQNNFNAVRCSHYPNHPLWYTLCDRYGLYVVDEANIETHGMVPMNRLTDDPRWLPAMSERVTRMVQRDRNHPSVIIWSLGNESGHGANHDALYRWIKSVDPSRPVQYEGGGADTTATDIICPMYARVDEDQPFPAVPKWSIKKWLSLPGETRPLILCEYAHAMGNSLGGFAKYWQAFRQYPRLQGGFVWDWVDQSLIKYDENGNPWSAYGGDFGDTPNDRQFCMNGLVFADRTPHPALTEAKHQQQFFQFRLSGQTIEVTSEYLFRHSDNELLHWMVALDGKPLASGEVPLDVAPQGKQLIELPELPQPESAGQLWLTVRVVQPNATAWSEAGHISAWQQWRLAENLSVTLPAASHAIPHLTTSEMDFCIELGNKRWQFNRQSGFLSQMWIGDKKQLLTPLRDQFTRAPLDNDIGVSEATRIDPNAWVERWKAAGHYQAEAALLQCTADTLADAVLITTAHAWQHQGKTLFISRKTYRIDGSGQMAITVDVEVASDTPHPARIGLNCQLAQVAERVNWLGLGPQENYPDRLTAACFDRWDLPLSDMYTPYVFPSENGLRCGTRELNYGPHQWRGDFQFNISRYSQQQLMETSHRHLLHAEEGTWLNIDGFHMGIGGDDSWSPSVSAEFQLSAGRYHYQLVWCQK

Cc1ccc2nc(O)c(C3C(C#N)=C(N)Oc4c3ccc3cccnc43)cc2c1 (stereo not drawn)
AC50 (INS1): 1.27 µM (active)
IC50 (Nonstructural protein 1): 46.8 µM (active)
IC50 (Estrogen receptor): 19.5 µM (active)
EC50 [1]: 2.17 µM (active)
CC50 [2]: 2.48 µM (active)
IC50 (Bcl-2-like protein 10): 66.8 µM (inactive)
EC50 [3]: > 160 µM (inconclusive)

COc1ccc(-c2coc3ccc(O[C@@H]4O[C@@H](COC(C)=O)[C@@H](OC(C)=O)[C@@H](OC(C)=O)[C@H]4OC(C)=O)cc3c2=O)cc1
AC50 (Cytochrome P450 2C9): 20 µM (inconclusive)

O=C(Cc1ccccc1)Nc1ccc(N2CCCC2)cc1
IC50 [4]: 6.03 µM (active)
IC50 (Bcl-2-like protein 10): 31.2 µM (active)

C=C(C(=O)c1ccccc1)C(C)C(=C)C(=O)c1ccccc1
EC50 [5]: 1.14 µM (active)
EC50 [6]: 1.65 µM (active)
EC50 [7]: > 120 µM (not active)
Absolute IC50 (CHOP) [8]: 10 µM
AC50 (INS1): 7.97 µM (active)
EC50 [9]: 7.98 µM (active)
EC50 (H4): > 120 µM (not active)
AC50 [10]: 2.33 µM (active)

O=C(ON=C1CCN(c2ccc([N+](=O)[O-])cc2)CC1)c1ccccc1
EC50 [11]: > 53 µM (inactive)
IC50 [12]: > 20 µM (inactive)
IC50 (Aminopeptidase N): 45.2 µM (active)
IC50 [13]: 2.74 µM (active)

CC(=O)Nc1sc(/C(C#N)=C/c2ccc(Cl)c(Cl)c2)nc1-c1ccc(C)cc1
IC50 [14]: 0.534 µM (active)

COc1cccc(N(CC(=O)NC2CCCC2)C(=O)Cn2nnc(-c3ccc(C)cc3)n2)c1
AC50 [15]: 234 µM (active)

COc1ccc(F)cc1C(=O)C1CCCN(Cc2cccn2-c2ccccn2)C1 (stereo not drawn)
EC50 [16]: 8.93 µM (active)
EC50 [17]: > 195 µM (not active)

O=C(Nc1ccc(Cl)cc1)Nc1ccc(N2CCCC2)c(S(=O)(=O)Nc2ccccc2Cl)c1
AC50 (INS1): 6.99 µM (active)
IC50 [18]: > 16 µM (inactive)
AC50 [15]: 23.5 µM (active)
IC50 [19]: 4.47 µM (active)
AC50 [20]: 5.2 µM (active)
AC50 (Paired box protein Pax-8): 5.13 µM (active)
AC50 [21]: 7.06 µM (active)

COc1ccc(NC(=O)c2ccc(Cl)cc2C(=O)O)cc1
IC50 (Hexokinase): > 25 µM (inactive)

C/C(CCC12CC3CC(CC(C3)C1)C2)=N\NC(N)=S
IC50 [22]: 50.4 µM (inactive)
IC50 (Beta-galactosidase): > 66.6 µM (inactive)

COc1ccc2c(c1OC)C(=O)O[C@@H]2[C@H]1c2cc3c(cc2CCN1C)OCO3 [HYDRASTINE]
AC50 (Cytochrome P450 2D6): 39.8 µM (inconclusive)
AC50 (Cytochrome P450 2C9): 25.1 µM (inconclusive)

Reference: ChEMBL document CHEMBL1201862, “PubChem BioAssay data set” (2004)
